Measured values as given in US8735620B2, “Processes for preparing (E)-styrylbenzylsulfone compounds and uses thereof for treating proliferative disorders” (priority 2008, dated 2014).
pIC50: −log10 of the molar value. Where two headings read alike, the source gives them in different places.

Legend:
Type in all cases: cell-based
[1] = system: BT20 (human breast tumor cell line); assay: Cytotoxicity assay (trypan blue exclusion, 96 h), BT20; conditions: BT20, 96 h treatment
From the text: (§1) Tissue Culture and Reagents: Paclitaxel was purchased from Sigma. Cell lines were purchased from ATCC. Cell lines were routinely grown in DMEM or RPM1 (CellGro) supplemented with 10% fetal bovine serum (Atlas) and 1 unit/mL penicillin-streptomycin (Gibco).

[2] = system: DU145 (human prostate tumor cell line); assay: Cytotoxicity assay (trypan blue exclusion, 96 h), DU145; conditions: DU145, 96 h treatment; read-out: DU145 IC50
From the text: as §1

[3] = system: BT20, DU145, H157 and DLD1 cell lines; assay: In vitro cytotoxicity, four human tumor cell lines (SAR discussion)
Method: A number of tumor cell lines were tested using a dose response end point assay system. The cells were grown in either DMEM or RPMI supplemented with 10% fetal bovine serum and 1 unit/mL Penicillin-Streptomycin solution. The tumor cells were plated into 6 well dishes at a cell density of 1.0×10^5 cells/mL/well and compounds were added 24 h later at various concentrations. Cell counts were determined from duplicate wells after 96 h of treatment. The total number of viable cells was determined by trypan blue exclusion.
Following the synthesis of this group of compounds, their in vitro cytotoxicity was assessed using four different human tumor cell lines derived from human breast (BT20), prostate (DU145), lung (H157) and colorectal (DLD1) cancers. […] In a majority of the compounds described here, a methoxy group was kept constant at the 4th position on the aromatic ring of the benzyl moiety.

[4] = system: H157 (human lung tumor cell line); assay: Cytotoxicity assay (trypan blue exclusion, 96 h), H157; conditions: H157, 96 h treatment; read-out: H157 IC50
From the text: as §1

[5] = system: DLD1 (human colorectal tumor cell line); assay: Cytotoxicity assay (trypan blue exclusion, 96 h), DLD1; conditions: DLD1, 96 h treatment; read-out: DLD1 IC50
From the text: as §1

| SMILES | pIC50 [1] | pIC50 [2] | cytotoxic activity, SAR statement [3] | pIC50 [4] | pIC50 [5] | cytotoxic activity, SAR statement ([3]; four human tumor cell lines) | fold enhancement of activity compared to other disubstituted methoxy sulfones (6j, 6n, 6o and 6p) ([3]; cytotoxicity assays) | activity in cell-killing assays ([3]; at the highest concentration (20 μM) tested) |
| --- | --- | --- | --- | --- | --- | --- | --- | --- |
| COc1ccc(/C=C/S(=O)(=O)Cc2ccc(OC)cc2)cc1 [6a, (E)-4-Methoxystyryl-4-Methoxybenzyl sulfone] | < 4.70 | < 4.70 | gradually decreased the activity | < 4.70 | < 4.70 |  |  |  |
| COc1cc(OC)c(/C=C/S(=O)(=O)Cc2cc(OC)c(OC)c(OC)c2)c(OC)c1 [6ac, (E)-2,4,6-trimethoxystyryl-3,4,5-Trimethoxybenzyl sulfone] | < 4.70 | < 4.70 |  | < 4.70 | < 4.70 |  |  |  |
| COc1cc(OC)c(/C=C/S(=O)(=O)Cc2ccc(OC)c(OC)c2OC)c(OC)c1 [6ad, (E)-2,4,6-Trimethoxystyryl-2,3,4-Trimethoxybenzyl sulfone] |  | 4.90 |  |  |  |  |  |  |
| COc1cc(OC)c(/C=C/S(=O)(=O)Cc2ccc(Cl)cc2)c(OC)c1 [6ae, (E)-2,4,6-trimethoxystyryl-4-chlorobenzyl sulfone] | 5.00 | 5.12 | substantially lost activity |  |  |  |  |  |
| COc1cc(OC)c(/C=C/S(=O)(=O)Cc2ccc([N+](=O)[O-])cc2)c(OC)c1 [6af, (E)-2,4,6-trimethoxystyryl-4-Nitrobenzyl sulfone] |  |  |  |  |  | substantially lost activity |  |  |
| COc1cc(OC)c(/C=C/S(=O)(=O)Cc2ccc(C#N)cc2)c(OC)c1 [6ag, (E)-2,4,6-trimethoxystyryl-4-Cyanobenzyl sulfone] | 4.90 | 5.12 | substantially lost activity |  |  |  |  |  |
| COc1cc(OC)c(/C=C/S(=O)(=O)Cc2ccc(C(=O)O)cc2)c(OC)c1 [6ah, (E)-2,4,6-trimethoxystyryl-4-Carboxybenzyl sulfone] |  | 5.00 |  | 4.76 |  | substantially lost activity |  |  |
| COc1cc(OC)c(/C=C/S(=O)(=O)Cc2ccc(O)cc2)c(OC)c1 [6ai, (E)-2,4,6-trimethoxystyryl-4-Hydroxybenzyl sulfone] |  | 5.12 |  |  |  | substantially lost activity |  |  |
| COc1ccc(CS(=O)(=O)/C=C/c2ccc(F)cc2)cc1 [6b, (E)-4-Fluorostyryl-4-Methoxybenzyl sulfone] | 5.82 | 5.90 | moderate cytotoxic activity | 5.60 | 5.70 |  |  |  |
| COc1ccc(CS(=O)(=O)/C=C/c2ccc(Cl)cc2)cc1 [6c, (E)-4-Chlorostyryl-4-Methoxybenzyl sulfone] | 5.70 | 5.60 | gradually decreased the activity | 5.46 | 5.52 |  |  |  |
| COc1ccc(CS(=O)(=O)/C=C/c2ccc([N+](=O)[O-])cc2)cc1 [6d, (E)-4-Nitrostyryl-4-Methoxybenzyl sulfone] | 5.30 | 5.12 |  | 5.12 | 5.30 | gradually decreased the activity |  |  |
| COc1ccc(CS(=O)(=O)/C=C/c2ccc(N)cc2)cc1 [6e, (E)-4-Aminostyryl-4-Methoxybenzyl sulfone] | < 4.70 | < 4.70 | gradually decreased the activity | < 4.70 | < 4.70 |  |  |  |
| COc1ccc(CS(=O)(=O)/C=C/c2ccccc2OC)cc1 [6f, (E)-2-Methoxystyryl-4-Methoxybenzyl sulfone] | 5.30 | 5.46 |  | 5.30 | 5.12 | partially recovered the lost activity |  |  |
| COc1ccc(CS(=O)(=O)/C=C/c2ccc(F)cc2Cl)cc1 [6g, (E)-2-Chloro-4-fluorostyryl-4-Methoxybenzyl sulfone] | 5.60 | 5.70 | retained cytotoxic activity | 5.60 | 5.40 |  |  |  |
| COc1ccc(CS(=O)(=O)/C=C/c2ccc(C)cc2C)cc1 [6h, (E)-2,4-Dimethylstyryl-4-Methoxybenzyl sulfone] |  | 4.92 | low level of cytotoxicity |  |  |  |  |  |
| COc1ccc(CS(=O)(=O)/C=C/c2ccc(F)c(OC)c2)cc1 [6i, (E)-4-Fluoro-3-methoxystyryl-4-Methoxybenzylsulfone] |  | 5.00 |  |  |  | loss of activity |  |  |
| COc1ccc(CS(=O)(=O)/C=C/c2ccc(OC)c(OC)c2)cc1 [6j, (E)-3,4-Dimethoxystyryl-4-Methoxybenzyl sulfone] | < 4.70 | < 4.70 |  | < 4.70 | < 4.70 |  |  |  |
| COc1ccc(CS(=O)(=O)/C=C/c2cc(C)cc(C)c2)cc1 [6k, (E)-3,5-Dimethylstyryl-4-Methoxybenzyl sulfone] | < 4.70 | < 4.70 | low level of cytotoxicity | < 4.70 | < 4.70 |  |  |  |
| COc1ccc(CS(=O)(=O)/C=C/c2c(C)cccc2C)cc1 [6l, (E)-2,6-Dimethylstyryl-4-Methoxybenzyl sulfone] | < 4.70 | < 4.70 | low level of cytotoxicity | < 4.70 | < 4.70 |  |  |  |
| COc1ccc(CS(=O)(=O)/C=C/c2c(OC)cccc2OC)cc1 [6m, (E)-2,6-Dimethoxystyryl-4-Methoxybenzyl sulfone] | 6.40 | 6.60 |  | 6.15 | 6.15 |  | greater than 40 fold |  |
| COc1ccc(CS(=O)(=O)/C=C/c2ccc(OC)cc2OC)cc1 [6n, (E)-2,4-Dimethoxystyryl-4-Methoxybenzyl sulfone] | < 4.70 | < 4.70 |  | < 4.70 | < 4.70 |  |  |  |
| COc1ccc(CS(=O)(=O)/C=C/c2cc(OC)ccc2OC)cc1 [6o, (E)-2,5-Dimethoxystyryl-4-Methoxybenzyl sulfone] | < 4.70 | < 4.70 |  | < 4.70 | < 4.70 |  |  |  |
| COc1ccc(CS(=O)(=O)/C=C/c2cc(OC)cc(OC)c2)cc1 [6p, (E)-3,5-Dimethoxystyryl-4-Methoxybenzyl sulfone] | < 4.70 | < 4.70 |  | < 4.70 | < 4.70 |  |  |  |
| COc1ccc(CS(=O)(=O)/C=C/c2cc(OC)c(OC)cc2OC)cc1 [6q, (E)-2,4,5-Trimethoxystyryl-4-Methoxybenzyl sulfone] | < 4.70 | < 4.70 |  | < 4.70 | < 4.70 |  |  | totally inactive |
| COc1cc(OC)c(/C=C/S(=O)(=O)Cc2ccc(OC(F)(F)F)cc2)c(OC)c1 [6x, (E)-2,4,6-Trimethoxystyryl-4-Trifluoromethoxybenzyl sulfone] | 5.52 | 5.40 |  | 5.22 | 5.40 |  |  |  |
| COc1ccc(CS(=O)(=O)/C=C/c2cc(OC)c(OC)c(OC)c2)cc1O [6y, (E)-3,4,5-Trimethoxystyryl-3-Hydroxy-4-Methoxybenzyl Sulfone] | 5.12 | 5.30 |  | 5.00 | 5.00 |  |  |  |
| COc1ccc(CS(=O)(=O)/C=C/c2c(OC)cc(O)cc2OC)cc1O [6z, (E)-2,6-Dimethoxy-4-hydroxystyryl-3-Hydroxy-4-Methoxybenzyl Sulfone] | 6.60 | 6.30 |  | 6.30 | 6.30 |  |  |  |
